Test results from US20230172204A1 (BASF SE, priority 2020, published 2023).

Key:
[1] = test system: Phakopsora pachyrhizi (F129L); assay: Protective control of soybean rust on soybeans (PHAKPA P2); assay type: in vivo; details: for % PHAKPA (F129L) Disease level P2 at 4 ppm: protective P2, 4 ppm; for % PHAKPA (F129L) Disease level P2 at 4 ppm / % PHAKPA (F129L) Disease level P2 at 16 ppm: soybean rust F129L; for % PHAKPA (F129L) Disease level P2 at 16 ppm: protective P2, 16 ppm
[2] = test system: Phakopsora pachyrhizi (F129L); assay: Protective control of soybean rust on soybeans (PHAKPA P6); assay type: in vivo; details: for % PHAKPA (F129L) Disease level P6 at 4 ppm: protective P6, 4 ppm; for % PHAKPA (F129L) Disease level P6 at 4 ppm / % PHAKPA (F129L) Disease level P6 at 16 ppm: soybean rust F129L; for % PHAKPA (F129L) Disease level P6 at 16 ppm: protective P6, 16 ppm
[3] = P2 protective, % diseased leaf area
[4] = P6 protective, % diseased leaf area

| SMILES | % PHAKPA (F129L) Disease level P2 at 4 ppm [1] [%] | % PHAKPA (F129L) Disease level P2 at 16 ppm [1] [%] | % PHAKPA (F129L) Disease level P6 at 4 ppm [2] [%] | % PHAKPA (F129L) Disease level P6 at 16 ppm [2] [%] | PHAKPA (F129L) Disease level (%) P2 at 4 ppm ([1]; P2 protective, 4 ppm, % diseased leaf area) [%] | PHAKPA (F129L) Disease level (%) P6 at 4 ppm ([2]; P6 protective, 4 ppm, % diseased leaf area) [%] | PHAKPA (F129L) Disease level (%) P2 at 16 ppm [1, 3] [%] | PHAKPA (F129L) Disease level (%) P6 at 16 ppm [2, 4] [%] |
| --- | --- | --- | --- | --- | --- | --- | --- | --- |
| CO/N=C(/C(=O)OC)c1cccc(C)c1CO/N=C(\C)c1c(Cl)cccc1Cl [compound 171] | 100 | 100 | 80 | 50 | – | – | – | – |
| CCc1cccc(/C(=N\OC)C(=O)OC)c1CO/N=C(\C)c1cccc(C(F)(F)F)c1 [compound 61] | 70 | 15 | 90 | 18 | – | – | – | – |
| CO/C=C(/C(=O)OC)c1ccccc1CO/N=C(\C)c1cccc(C(F)(F)F)c1 [reference compound] | – | – | – | – | 6 | 30 | – | – |
| CNC(=O)/C(=N/OC)c1cccc(C)c1CO/N=C(\C)c1cc(-c2ccccc2)cc(C(F)(F)F)c1 [compound 149] | 83 | 45 | 87 | 31 | – | – | – | – |
| CNC(=O)/C(=N/OC)c1cccc(C)c1CO/N=C(/c1ccccc1)C(C)C [compound 389] | 28 | 4 | 43 | 3 | – | – | – | – |
| CO/N=C(/C(=O)OC)c1ccccc1CO/N=C(\C)c1cc(F)ccc1F [reference compound] | – | – | – | – | – | – | 1 | 22 |
| CNC(=O)/C(=N/OC)c1cccc(C)c1CO/N=C(\C)c1cccc(C#N)c1 [compound 112] | 13 | 3 | 30 | 9 | – | – | – | – |
| CO/N=C(/C(=O)OC)c1cccc(C)c1CO/N=C(\C)c1ccccc1C#N [compound 224] | 97 | 100 | 100 | 100 | – | – | – | – |
| CO/N=C(/C(=O)OC)c1ccccc1CO/N=C(\C)c1ccc(OC)cc1 [reference compound] | – | – | – | – | – | – | 67 | 33 |
| CNC(=O)/C(=N/OC)c1ccccc1CO/N=C(\C)c1ccc(Cl)c(C(F)(F)F)c1 [reference compound] | – | – | – | – | – | – | 11 | 4 |
| CNC(=O)/C(=N/OC)c1cccc(C)c1CO/N=C(\C)c1ccc(F)c(F)c1 [compound 132] | 1 | 0 | 6 | 0 | – | – | – | – |
| CO/N=C(/C(=O)OC)c1cccc(C)c1CO/N=C(\C)c1c(F)cc(Br)cc1C(F)(F)F [compound 368] | 83 | 47 | 90 | 73 | – | – | – | – |
| CNC(=O)/C(=N/OC)c1cccc(C)c1CO/N=C(\C)c1ccc(Cl)cc1OC(F)(F)F [compound 375] | 47 | 8 | 40 | 6 | – | – | – | – |
| CNC(=O)/C(=N/OC)c1cccc(C)c1CO/N=C(\C)c1ccccc1OC1CC1 [compound 329] | 100 | 53 | 100 | 73 | – | – | – | – |
| CO/N=C(/C(=O)OC)c1cccc(C)c1CO/N=C(/c1cccc(C(F)(F)F)c1)C(C)C [compound 206] | 100 | 67 | 100 | 90 | – | – | – | – |
| CO/N=C(/C(=O)OC)c1cccc(C)c1CO/N=C(\C)c1cccc(C(C)(F)F)c1 [compound 302] | 47 | 4 | 47 | 3 | – | – | – | – |
| CNC(=O)/C(=N/OC)c1cccc(C)c1CO/N=C(\C)c1ccccc1OC [Ex. 126] | 87 | 34 | 95 | 70 | – | – | 32 | 60 |
| CO/C=C(/C(=O)OC)c1cccc(C)c1CO/N=C(\C)c1ccccc1CC(F)(F)F [compound 437] | 2 | 0 | 8 | 0 | – | – | – | – |
| CNC(=O)/C(=N/OC)c1cccc(C)c1CO/N=C(\C)c1cc(Cl)ccc1C(F)(F)F [compound 245] | 28 | 8 | 13 | 2 | – | – | – | – |

| SMILES | % PHAKPA (F129L) Disease level P2 at 4 ppm [1] [%] | % PHAKPA (F129L) Disease level P2 at 16 ppm [1] [%] | % PHAKPA (F129L) Disease level P6 at 4 ppm [2] [%] | % PHAKPA (F129L) Disease level P6 at 16 ppm [2] [%] | PHAKPA (F129L) Disease level (%) P2 at 4 ppm ([1]; P2 protective, 4 ppm, % diseased leaf area) [%] | PHAKPA (F129L) Disease level (%) P6 at 4 ppm ([2]; P6 protective, 4 ppm, % diseased leaf area) [%] | PHAKPA (F129L) Disease level (%) P2 at 16 ppm [1, 3] [%] | PHAKPA (F129L) Disease level (%) P6 at 16 ppm [2, 4] [%] |
| --- | --- | --- | --- | --- | --- | --- | --- | --- |
| CNC(=O)/C(=N/OC)c1cccc(C)c1CO/N=C(\C)c1c(F)cccc1Cl [compound 284] | 63 | 44 | 62 | 34 | – | – | – | – |
| CO/C=C(/C(=O)OC)c1cccc(C)c1CO/N=C(\C)c1ccc(C)cc1C(F)(F)F [compound 446] | 2 | 0 | 6 | 0 | – | – | – | – |
| CNC(=O)/C(=N/OC)c1cccc(C)c1CO/N=C(\C)c1cc(F)c(F)cc1C(F)(F)F [compound 410] | 9 | 0 | 35 | 1 | – | – | – | – |
| CNC(=O)/C(=N/OC)c1cccc(C)c1CO/N=C(\C)c1cccc(C2CC2)c1 [compound 299] | 53 | 13 | 53 | 22 | – | – | – | – |
| CNC(=O)/C(=N/OC)c1cccc(C)c1CO/N=C(\COC)c1cccc(C(F)(F)F)c1 [compound 186] | 1 | 0 | 2 | 0 | – | – | – | – |
| CO/N=C(/C(=O)OC)c1ccccc1CO/N=C(\C)c1cc(Cl)cc(Cl)c1 [reference compound] | – | – | – | – | – | – | 27 | 17 |
| CNC(=O)/C(=N/OC)c1cccc(C)c1CO/N=C(\C)c1c(F)cc(F)cc1OC(F)(F)F [compound 344] | 6 | 0 | 16 | 0 | – | – | – | – |
| CNC(=O)/C(=N/OC)c1cccc(C)c1CO/N=C(\C)c1cccc(Cl)c1C(F)(F)F [compound 422] | 30 | 0 | 32 | 2 | – | – | – | – |
| CO/N=C(/C(=O)OC)c1cccc(C)c1CO/N=C(\C)c1cccc(OC)c1 [compound 78] | 40 | 1 | 30 | 1 | – | – | – | – |
| CNC(=O)/C(=N/OC)c1cccc(C)c1CO/N=C(\C)c1ccc(-c2ccccc2)cc1OC(F)(F)F [compound 435] | 93 | 57 | 87 | 60 | – | – | – | – |
| CO/N=C(/C(=O)OC)c1cccc(C)c1CO/N=C(\C)c1c(F)cc(F)cc1OC(F)(F)F [compound 361] | 80 | 18 | 88 | 31 | – | – | – | – |
| CO/N=C(/C(=O)OC)c1cccc(C)c1CO/N=C(\C)c1c(F)cccc1C(F)(F)F [compound 365] | 77 | 15 | 97 | 43 | – | – | – | – |
| CNC(=O)/C(=N/OC)c1cccc(C)c1CO/N=C(\C)c1ccc(F)c(C(F)(F)F)c1 [compound 47] | 13 | 0 | 12 | 0 | – | – | – | – |
| CNC(=O)/C(=N/OC)c1cccc(C)c1CO/N=C(\C)c1ccccc1OC(F)(F)F [compound 184] | 42 | 4 | 16 | 1 | – | – | – | – |
| CO/N=C(/C(=O)OC)c1ccccc1CO/N=C(\C)c1cccc(Cl)c1 [reference compound] | – | – | – | – | – | – | 73 | 70 |
| CO/N=C(/C(=O)OC)c1cccc(C)c1CO/N=C(\C)c1ccc(Oc2ccc(Cl)cc2)cc1C(F)(F)F [compound 335] | 77 | 53 | 80 | 25 | – | – | – | – |
| CO/N=C(/C(=O)OC)c1cccc(C)c1CO/N=C(\C)c1cccc(F)c1F [compound 177] | 100 | 21 | 87 | 47 | – | – | – | – |
| CNC(=O)/C(=N/OC)c1cccc(C)c1CO/N=C(\C)c1cc(Cl)cc(Cl)c1F [compound 167] | 2 | 0 | 9 | 0 | – | – | – | – |
